Assay [1] has as its target T1, 5-LO (Homo sapiens, UniProt P09917).
T1 construct: incubating a test compound with heparinised human blood, prior to challenge with the calcium ionophore A23187; endogenous in cells; host or cells: heparinised human whole blood (blood cells)
T1 sequence (P09917 1-674): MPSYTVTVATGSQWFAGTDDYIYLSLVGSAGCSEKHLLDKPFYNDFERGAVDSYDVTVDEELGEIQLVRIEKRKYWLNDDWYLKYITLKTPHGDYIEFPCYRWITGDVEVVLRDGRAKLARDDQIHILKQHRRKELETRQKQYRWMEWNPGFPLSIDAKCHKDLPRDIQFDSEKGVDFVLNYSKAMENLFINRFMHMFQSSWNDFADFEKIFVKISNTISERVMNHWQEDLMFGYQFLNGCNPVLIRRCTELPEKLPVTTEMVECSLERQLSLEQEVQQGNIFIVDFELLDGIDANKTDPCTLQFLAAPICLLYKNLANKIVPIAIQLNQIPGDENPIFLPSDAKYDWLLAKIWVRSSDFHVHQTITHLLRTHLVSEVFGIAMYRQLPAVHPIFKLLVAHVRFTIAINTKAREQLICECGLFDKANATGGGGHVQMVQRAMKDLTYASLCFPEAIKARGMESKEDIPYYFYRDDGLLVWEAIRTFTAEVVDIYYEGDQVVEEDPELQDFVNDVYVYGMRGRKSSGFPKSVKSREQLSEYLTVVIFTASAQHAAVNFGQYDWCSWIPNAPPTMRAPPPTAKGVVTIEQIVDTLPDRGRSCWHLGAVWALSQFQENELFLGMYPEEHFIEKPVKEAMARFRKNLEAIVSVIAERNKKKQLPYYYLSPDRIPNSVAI
The assay is described as follows: Test a): in vitro heparinised human blood challenged with calcium ionophore A23187, radioimmunoassay of LTB₄. It counts as cell-based. Conditions: A23187 challenge, read-out: IC₅₀ (LTB₄). The text has this:
As stated previously, the compounds of the formula I are inhibitors of the enzyme 5-LO. […] J. Pharmacol., 1985, 84, 34P) which involves the use of a protein-LTB₄ conjugate produced using the procedure of Young et alia (Prostaglandins, 1983, 26(4), 605-613). The effects of a test compound on the enzyme cyclooxygenase (which is involved in the alternative metabolic pathway for arachidonic acid and gives rise to prostaglandins, thromboxanes and related metabolites) may be measured at the same time using the specific radioimmunoassay for thromboxane B₂(TxB₂) described by Carey and Forder (see above). This test provides an indication of the effects of a test compound against 5-LO and also cyclooxygenase in the presence of blood cells and proteins. It permits the selectivity of the inhibitory effect on 5-LO or cyclooxygenase to be assessed. • b) An ex vivo assay system, which is a variation of test a) above, involving administration to a group of rats of a test compound (usually orally as the suspension produced when a solution of the test compound in dimethylsulphoxide is added to carboxymethylcellulose), blood collection, heparinisation, challenge with A23187 and radioimmunoassay of LTB₄ and TxB₂. […]

The target in assay [2] is T2, 5-LO (Rattus norvegicus, UniProt P12527).
T2 construct: liberation of LTB₄ induced by zymosan within an air pouch generated within the subcutaneous tissue of the back of male rats; from tissue; host or cells: subcutaneous air pouch of male rats (in vivo)
T2 sequence (P12527 1-673): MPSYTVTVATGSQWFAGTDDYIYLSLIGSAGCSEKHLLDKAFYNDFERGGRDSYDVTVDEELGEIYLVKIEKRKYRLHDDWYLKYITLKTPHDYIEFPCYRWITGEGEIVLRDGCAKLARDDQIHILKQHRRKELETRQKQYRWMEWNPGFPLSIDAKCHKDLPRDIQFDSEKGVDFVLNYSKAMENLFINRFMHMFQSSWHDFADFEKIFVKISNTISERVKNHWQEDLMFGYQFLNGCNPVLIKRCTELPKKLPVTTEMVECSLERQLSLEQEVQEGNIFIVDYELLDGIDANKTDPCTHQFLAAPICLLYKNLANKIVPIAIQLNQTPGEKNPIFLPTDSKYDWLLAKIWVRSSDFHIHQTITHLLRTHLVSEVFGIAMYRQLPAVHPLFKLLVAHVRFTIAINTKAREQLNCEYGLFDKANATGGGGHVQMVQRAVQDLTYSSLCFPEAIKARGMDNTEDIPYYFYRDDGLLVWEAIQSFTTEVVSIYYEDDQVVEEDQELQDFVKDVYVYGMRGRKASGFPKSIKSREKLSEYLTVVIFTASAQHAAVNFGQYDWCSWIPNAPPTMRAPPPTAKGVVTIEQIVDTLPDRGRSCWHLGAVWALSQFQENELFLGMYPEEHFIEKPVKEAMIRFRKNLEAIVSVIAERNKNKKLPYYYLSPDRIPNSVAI
The assay is described as follows: Test c): in vivo zymosan-induced LTB₄ liberation in subcutaneous air pouch of male rats. Conditions: oral, 3 hours, read-out: oral ED₅₀(LTB₄).
Experimental: This test provides an indication of the bioavailability of a test compound as an inhibitor of 5-LO or cyclooxygenase. • c) An in vivo system involving measuring the effects of a test compound administered orally against the liberation of LTB₄ induced by zymosan within an air pouch generated within the subcutaneous tissue of the back of male rats. The rats are anaesthetised and air pouches are formed by the injection of sterile air (20ml). A further injection of air (10ml) is similarly given after 3 days. At 6 days after the initial air injection the test compound is administered (usually orally as the suspension produced when a solution of the test compound in dimethylsulphoxide is added to hydroxypropylmethylcellulose), followed by the intrapouch injection of zymosan (1ml of a 1% suspension in physiological saline). After 3 hours the rats are killed, the air pouches are lavaged with physiological saline, and the specific radioimmunoassay described above is used to assay LTB₄ in the washings. This test provides an indication of inhibitory effects against 5-LO in an inflammatory milieu.

Molecules are shown by their SMILES.

Here are results for two molecules from patent EP0610032A1, “Acetanilide derivatives” (ZENECA LIMITED, priority 1993, dated 1994).

With `CC(=O)N(C)c1ccc(Sc2ncc([C@@]3(C)COC(C)(C)O3)s2)cc1` [Example 2, N-methyl-4'-{5-[(4R)-2,2,4-trimethyl-1,3-dioxolan-4-yl]thiazol-2-ylthio}acetanilide], the IC50 at 5-LO [1] came to 70 nM.

In the case of `CC(=O)N(C)c1ccc(Sc2cc([C@@]3(C)COC(C)(C)O3)cs2)cc1` [Example 1, N-methyl-4'-{4-[(4S)-2,2,4-trimethyl-1,3-dioxolan-4-yl]thien-2-ylthio}acetanilide], at 5-LO [2], the ED50 was roughly 1.5 mg/kg. In addition, the IC50 at 5-LO [1] is less than 40 nM.
